Test results taken from patent US8193225B2, “Isoxazole amides, derivatives and methods of chemical induction of neurogenesis” (priority 2006, dated 2012).
Entries after “also recorded” stand apart in the source; their conditions may differ.

Key:
HCN cells [1] = assay: in vitro neuronal differentiation of HCN cells (morphology, Tuj1 staining); assay type: cell-based, rat; conditions: for morphologic neuronal differentiation of NPCs: 25 μM AMPA or 50 μM Muscimol; for effect of inhibitor on Isx-9 neurogenic activity (Tuj1+ cells): Isx-9-treated HCN cells, KN93 2 d cultures
HDAC5 = assay: protein blotting of phospho-HDAC5, HDAC4 and phospho-CaMKII in HCN cells; assay type: cell-based, rat; conditions: Isx/Isx-9-treated NSCs; KN93, KN92 5 μM
pHDAC5:14-3-3-luciferase = assay: mammalian 2-hybrid luciferase assay (pHDAC5:14-3-3-luciferase); assay type: cell-based, rat; conditions: Isx-9-treated NSCs
Protocol: FIGS. 5A-F—CaMK is the major HDAC kinase activated by Isx small-molecules in NSCs. […] The doses of KN93 and KN92 in reporter assays were 10, 5, and 1 μM. (FIG. 5D) A schematic diagram of a mammalian 2-hybrid luciferase assay system (pHDAC5:14-3-3-luciferase) which is dependent on the interaction of HDAC5 and 14-3-3. […] (FIG. 5E) Shown are representative images and quantification of the percentage of Isx-9-treated HCNs showing GFP-HDAC5 localization in nuclear (Nuc), cytoplasmic (Cyto), or both compartments (Nuc/Cyto) with and without KN93 or KN92 treatment after 24 h. […] Scale bar: 5 μm. Values in […] represent the average of 12 replicates±SD. Values in FIG. 5E represent the average of 2 replicates+SD of one representative experiment from two independent experiments.
Reporter gene assay. All reporter gene assays were done in 96-well format, and each data point represents the average of 12 replicates. Reporter genes included neuroD-, gIuR2-, MREx3-, NR1-, and pHDAC5:14-3-3-luciferase and each well contained ˜25,000 cells in a volume of 100 μl. 5×10^6 HCN cells were transfected with 5 μg DNA by electroporation (Amaxa) and plated in growth media overnight. In the case of pHDAC5:14-3-3-luciferase, cells were transfected with 2 μg of each plasmid. Compounds were added the day following transfection and luciferase assays were performed 24 or 48 h later. […]

[2] = system: MEF2 reporter gene (3XMRE-luc); assay: MEF2 reporter gene (3XMRE-luc) assay in HCN cells; assay type: cell-based, rat; conditions: Isx-9-treated HCN cells; KN93, KN92 5 μM (10, 5, 1 μM), G66976 200 nM
HCN cells [3] = assay: RT-PCR and protein blotting of gene expression in HCN cells; assay type: cell-based, rat; conditions: NPCs, 50 μM Muscimol
neuroD-luciferase = neuroD-luciferase reporter gene assay in HCN cells; assay type: cell-based, rat; conditions: for effect of inhibitor on neuroD-luc activity of Isx/Isx-9-treated cells: inhibitor added to Isx/Isx-9-treated HCNs/NPCs, 24 h
Nkx2.5-luc = Nkx2.5-luc reporter in P19CL6 clone #5-1; assay type: cell-based, mouse
Source text: Assay development. An Nkx2.5-luc transgene was constructed by replacing the two coding sequence exons of NRx2.5 locus from the ATG with the coding sequence of luc (from pGL3-basic vector, Promega) in an ˜180,000 base pair-long BAC (FIG. 11). The recombinant BAC DNA was introduced into pluripotent P19CL6 cells using Lipofectamine-2000 (Invitrogen) and neo^R clones were selected, and tested for chemically inducible luc activity with sodium butyrate (NaB). #5-1, a clonal stem cell line with low basal and at least a 4-fold higher NaB-inducible luciferase activity compared to vehicle control (DMSO), yielding a Z′ value of 0.7 in 384-well plate format (Zhang et al. 1999), was chosen for the HTS.

HCN cells [4] = assay: cell death in HCN cells (propidium iodide/Hoescht live staining); assay type: cell-based, rat; conditions: 2 μM Q-VD-Oph
Protocol: Neural stem cell culture, in vitro differentiation, and CaMK inhibitor studies. The hippocampal neural stem/progenitor (NSC) line used in this study (HCN cells) were originally isolated from adult (8-10 wks old) female Fisher 344 rats and have been characterized previously (Gage et al., 1995; Palmer et al., 1997). HCN cells were cultured in DMEM:F12 (Omega Scientific) with N2 supplement (Invitrogen) and basic fibroblast growth factor (20 ng/ml FGF-2) (PeproTech). The mouse whole brain neural stem/progenitors (MWB) were derived from adult (8-10 wks old) C57BL/6 mice that have been characterized previously (Ray and Gage, 2006). […]
Immunostaining, GFP-HDAC5 visualization, and fluorescence microscopy. […] Quantification of cell phenotype was done by sampling 6-8 random fields in each well and counting a total of 250-500 cells at 20× magnification. […] For quantification of live/dead cells, images were taken of cultures live-stained with propidium iodide and Hoescht 33342 at 20× magnification, and 500-1000 cells were counted by sampling 6-8 random fields in each well. For quantification of HDAC5 subcellular localization, 20× images were taken of live cultures, and 40-50 GFP+ cells were counted by sampling 3 random fields in each well. […]

Structure (SMILES): Cc1onc(O)c1CC(N)C(=O)O (stereo not drawn) [AMPA, α-amino-3-hydroxy-5-methyl isoxazole-4-proprionic acid]
- morphologic neuronal differentiation of NPCs (HCN cells [1]): failed to induce morphologic neuronal differentiation

Structure (SMILES): COc1ccc(S(=O)(=O)Nc2ccccc2CN(C)C/C=C/c2ccc(Cl)cc2)cc1 [KN92]
- effect of inhibitor on phospho-HDAC5 and phospho-CaMKII levels (HDAC5): had no effect
- HDAC5 kinase activity (pHDAC5:14-3-3-luciferase) (pHDAC5:14-3-3-luciferase): not
- effect of kinase inhibitor on Isx-9-mediated MEF2 reporter activation [2]: had no effect

Structure (SMILES): NCc1cc(O)no1 [Muscimol, 5-aminomethyl-3-hydroxy-isoxazole]
- GluR2/3 protein expression (HCN cells [3]): increase
- neuroD-luciferase activity (neuroD-luciferase; NPCs, 15 μM Muscimol): an increase in neuroD-luciferase activity
- morphologic neuronal differentiation of NPCs (HCN cells [1]): failed to induce morphologic neuronal differentiation

Structure (SMILES): COc1ccc(S(=O)(=O)N(CCO)c2ccccc2CN(C)C/C=C/c2ccc(Cl)cc2)cc1 [KN93]
- effect of inhibitor on phospho-HDAC5 and phospho-CaMKII levels (HDAC5): blocked HDAC5 phosphorylation; also recorded: decreased phospho-HDAC5 and active phospho-CaMKII levels
- effect of inhibitor on neuroD-luc activity of Isx/Isx-9-treated cells (neuroD-luciferase): extremely effective in blocking Isx-mediated reporter gene expression
- HDAC5 kinase activity (pHDAC5:14-3-3-luciferase) (pHDAC5:14-3-3-luciferase): completely blocked HDAC5 kinase activity
- effect of kinase inhibitor on Isx-9-mediated MEF2 reporter activation [2]: extremely effective in blocking Isx-mediated reporter gene expression; also recorded: blocked Isx-9-mediated MEF2 reporter activation
- effect of inhibitor on Isx-9 neurogenic activity (Tuj1+ cells) (HCN cells [1]): resulted in an inhibition of Isx-9 neurogenic activity

Structure (SMILES): CCCC(=O)[O-].[Na+] [NaB, sodium butyrate]
- inducible luciferase activity compared to vehicle control (DMSO) (Nkx2.5-luc): ≥ 4 fold

Structure (SMILES): Cn1c2ccccc2c2c3c(c4c5ccccc5n(CCC#N)c4c21)CNC3=O [Isx G66976]
- effect of inhibitor on phospho-HDAC5 and phospho-CaMKII levels (HDAC5): did not
- effect of inhibitor on neuroD-luc activity of Isx/Isx-9-treated cells (neuroD-luciferase): did not significantly affect Isx-induced reporter gene expression
- effect of kinase inhibitor on Isx-9-mediated MEF2 reporter activation [2]: did not significantly affect Isx-induced reporter gene expression; also recorded: completely ineffective

Structure (SMILES): C[C@]12N[C@H](Cc3ccccc31)c1ccccc12 [MK801]
- effect of inhibitor on neuroD-luc activity of Isx/Isx-9-treated cells (neuroD-luciferase): small but significant decrease; also recorded: attenuated neuroD-luc activity

Structure (SMILES): CC(C)[C@H](NC(=O)c1ccc2ccccc2n1)C(=O)N[C@@H](CC(=O)O)C(=O)COc1c(F)cccc1F [Q-VD-Oph]
- effect of inhibitor on Isx-9 neurogenic activity (Tuj1+ cells) (HCN cells [1]): does not further increase Tuj1+ cells
- cell death in Isx-9-treated HCNs (HCN cells [4]): blocks cell death
